Assay results reported in patent US20220390426A1, “AIE PROBE AND APPLICATION THEREOF” (The Hong Kong University of Science and Technology, priority 2020, published 2022).

Target: albumin (HSA) (Homo sapiens, UniProt P02768)
Assay: Albumin detection by ASQ fluorescence in PBS buffer
Assay type: binding
Details: [ASQ]=100 μM, λex=430 nm
Method: FIG. 4A The fluorescence response of ASQ to HSA. FIG. 4B Linear plot of l/l0 at 542 nm versus HSA concentrations. l0 equals to the intensity of [HSA]=0 mg/L. FIG. 4C Selectivity study of ASQ towards albumin. l0 equals the intensity of the blank sample. [Biomolecules]=1 mg/mL. [ASQ]=100 μM, λex=430 nm.
Albumin protein is the substance carrier in blood with multiple polar or nonpolar binding sites. […] There is a very good linear relationship between the fluorescence intensity and albumin concentration (FIG. 4B).

Sequence of albumin (HSA) (P02768 25-609): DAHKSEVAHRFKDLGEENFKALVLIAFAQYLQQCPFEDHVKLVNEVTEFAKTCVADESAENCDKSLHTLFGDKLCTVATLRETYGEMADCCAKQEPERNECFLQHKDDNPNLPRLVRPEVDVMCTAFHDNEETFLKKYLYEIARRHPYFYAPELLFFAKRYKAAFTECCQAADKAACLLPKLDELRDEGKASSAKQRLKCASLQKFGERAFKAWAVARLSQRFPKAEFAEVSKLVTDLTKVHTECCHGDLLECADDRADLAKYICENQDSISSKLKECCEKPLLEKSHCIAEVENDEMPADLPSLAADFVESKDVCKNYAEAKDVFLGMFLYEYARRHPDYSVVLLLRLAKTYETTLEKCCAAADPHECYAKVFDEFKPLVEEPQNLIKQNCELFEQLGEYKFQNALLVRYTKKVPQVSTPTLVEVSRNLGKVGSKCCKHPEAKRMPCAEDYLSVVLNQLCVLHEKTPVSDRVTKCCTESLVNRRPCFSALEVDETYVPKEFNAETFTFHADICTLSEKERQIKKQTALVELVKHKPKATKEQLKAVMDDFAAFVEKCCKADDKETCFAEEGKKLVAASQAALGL

## CN(C)c1ccc(C=Cc2nc3ccccc3[nH]c2=O)cc1 [ASQ]
ASQ's PBS buffer solution
  fluorescence emission response on addition of albumin: greatly enhanced
[Biomolecules]=1 mg/mL
  selectivity towards albumin versus other common biomolecules such as hemoglobin (emission turn-on): good selectivity towards albumin
